Key:
[1] = target: T1, Vascular endothelial growth factor receptor 2 (Homo sapiens, UniProt P35968); experiment: Inhibition of VEGFR-2 (unknown origin)
[2] = target: T1, Vascular endothelial growth factor receptor 2; experiment: Inhibition of recombinant human VEGFR2 using Poly (Glu,Tyr) 4:1 as substrate incubated for 1 hr by ELISA
[3] = target: Platelet-derived growth factor receptor beta (Homo sapiens, UniProt P09619); experiment: Inhibition of recombinant human PDGFRbeta using Poly (Glu,Tyr) 4:1 as substrate incubated for 1 hr by ELISA
Sequence of Platelet-derived growth factor receptor beta (P09619 whole entry, the tested form may be a part): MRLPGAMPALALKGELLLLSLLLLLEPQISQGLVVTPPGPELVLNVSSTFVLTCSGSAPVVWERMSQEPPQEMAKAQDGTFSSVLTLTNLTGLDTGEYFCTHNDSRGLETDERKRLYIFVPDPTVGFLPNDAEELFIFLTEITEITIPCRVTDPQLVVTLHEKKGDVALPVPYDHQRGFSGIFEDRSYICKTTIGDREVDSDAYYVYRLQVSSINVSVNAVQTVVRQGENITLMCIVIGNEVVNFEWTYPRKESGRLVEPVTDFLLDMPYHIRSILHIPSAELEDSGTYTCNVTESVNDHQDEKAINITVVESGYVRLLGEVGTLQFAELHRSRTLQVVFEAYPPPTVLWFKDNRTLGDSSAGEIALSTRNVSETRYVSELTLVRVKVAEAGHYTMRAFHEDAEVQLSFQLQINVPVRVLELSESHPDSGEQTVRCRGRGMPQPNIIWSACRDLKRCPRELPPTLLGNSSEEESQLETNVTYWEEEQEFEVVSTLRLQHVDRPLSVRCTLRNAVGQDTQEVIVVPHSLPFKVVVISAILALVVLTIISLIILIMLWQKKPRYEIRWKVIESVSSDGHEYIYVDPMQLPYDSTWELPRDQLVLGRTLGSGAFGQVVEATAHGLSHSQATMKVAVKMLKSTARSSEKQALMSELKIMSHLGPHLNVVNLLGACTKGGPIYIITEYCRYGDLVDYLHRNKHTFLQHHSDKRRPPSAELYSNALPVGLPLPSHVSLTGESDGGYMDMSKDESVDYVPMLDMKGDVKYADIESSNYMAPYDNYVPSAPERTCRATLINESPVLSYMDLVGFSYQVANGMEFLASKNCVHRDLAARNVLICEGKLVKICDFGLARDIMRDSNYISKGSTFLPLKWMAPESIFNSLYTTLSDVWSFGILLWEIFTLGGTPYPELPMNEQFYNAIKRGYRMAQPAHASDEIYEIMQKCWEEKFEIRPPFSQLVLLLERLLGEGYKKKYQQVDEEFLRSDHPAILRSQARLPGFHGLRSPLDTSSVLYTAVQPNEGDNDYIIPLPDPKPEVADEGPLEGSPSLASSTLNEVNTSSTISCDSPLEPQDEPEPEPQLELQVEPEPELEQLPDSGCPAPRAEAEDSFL

[4] = Inhibition of PDGFRbeta (561 to 1106 residues) (unknown origin); design: species or system Homo sapiens
[5] = Half life in human; assay type: ADME
HUVEC = experiment: Inhibition of VEGF-induced HUVECs proliferation; assay type: functional, cell-based; details: Homo sapiens

T1 sequence (P35968 whole entry): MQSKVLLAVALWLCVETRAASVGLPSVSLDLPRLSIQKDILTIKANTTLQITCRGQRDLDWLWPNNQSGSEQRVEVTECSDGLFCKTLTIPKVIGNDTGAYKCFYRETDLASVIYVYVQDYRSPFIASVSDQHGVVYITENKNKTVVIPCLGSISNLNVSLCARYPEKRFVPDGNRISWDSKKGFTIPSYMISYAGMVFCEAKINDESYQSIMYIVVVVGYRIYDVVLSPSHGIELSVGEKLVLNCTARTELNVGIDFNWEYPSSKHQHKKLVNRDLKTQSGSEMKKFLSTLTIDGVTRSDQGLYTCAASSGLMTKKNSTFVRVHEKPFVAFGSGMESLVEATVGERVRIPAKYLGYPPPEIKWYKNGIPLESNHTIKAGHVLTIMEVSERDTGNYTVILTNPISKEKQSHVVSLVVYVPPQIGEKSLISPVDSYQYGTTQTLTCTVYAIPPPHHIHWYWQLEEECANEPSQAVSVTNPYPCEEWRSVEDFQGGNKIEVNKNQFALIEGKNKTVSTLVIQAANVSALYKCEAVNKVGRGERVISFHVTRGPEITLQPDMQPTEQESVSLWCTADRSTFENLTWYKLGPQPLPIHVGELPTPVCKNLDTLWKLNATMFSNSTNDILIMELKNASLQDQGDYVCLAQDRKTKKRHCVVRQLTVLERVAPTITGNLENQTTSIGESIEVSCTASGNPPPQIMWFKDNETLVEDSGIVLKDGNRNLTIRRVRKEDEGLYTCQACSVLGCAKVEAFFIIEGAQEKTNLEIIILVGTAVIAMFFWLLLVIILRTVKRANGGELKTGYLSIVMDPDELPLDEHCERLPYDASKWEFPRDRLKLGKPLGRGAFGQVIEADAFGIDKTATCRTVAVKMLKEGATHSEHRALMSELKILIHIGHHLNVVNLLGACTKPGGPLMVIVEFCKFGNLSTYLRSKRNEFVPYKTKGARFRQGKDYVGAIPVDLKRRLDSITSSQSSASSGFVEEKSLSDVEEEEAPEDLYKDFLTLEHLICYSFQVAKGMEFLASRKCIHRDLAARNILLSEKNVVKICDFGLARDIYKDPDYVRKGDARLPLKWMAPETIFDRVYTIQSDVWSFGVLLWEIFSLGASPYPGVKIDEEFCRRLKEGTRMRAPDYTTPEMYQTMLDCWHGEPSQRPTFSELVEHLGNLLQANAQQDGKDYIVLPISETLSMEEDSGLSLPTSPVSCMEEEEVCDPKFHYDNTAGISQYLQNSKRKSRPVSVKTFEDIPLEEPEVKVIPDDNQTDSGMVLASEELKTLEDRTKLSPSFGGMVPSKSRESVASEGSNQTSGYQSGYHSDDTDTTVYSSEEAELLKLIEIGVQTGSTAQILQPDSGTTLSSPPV

SMILES | half-life [5] [h] | IC50 [1] [nM] | IC50 (HUVEC) [nM] | other results
C=C1C(=O)O[C@H]2C[C@H](C)C(/C=C/C(C)=O)=CC[C@H]12 | – | 380 | – | –
COc1cc2c(Oc3ccc4[nH]c(C)cc4c3F)ccnc2cc1OCC1(N)CC1 [CATEQUENTINIB] | – | < 1 | – | IC50 [2]: 0.2 nM; IC50 [3]: 115 nM
CNC(=O)c1cc(Oc2ccc(NC(=O)Nc3ccc(Cl)c(C(F)(F)F)c3)c(F)c2)ccn1 [REGORAFENIB] | – | – | – | IC50 [4]: 22 nM

Now from value to compound, other results behind:

half-life [5] [h] | SMILES | IC50 [1] [nM] | IC50 (HUVEC) [nM] | other results
> 40 | CCN(CC)CCNC(=O)c1c(C)[nH]c(/C=C2\C(=O)Nc3ccc(F)cc32)c1C [SUNITINIB] | – | 12 | –
6.5 | Cc1[nH]c(/C=C2\C(=O)Nc3ccc(F)cc32)c(C)c1C(=O)N[C@H]1CCN(C(=O)N(C)C)C1 [VOROLANIB] | – | 31.5 | –

From ChEMBL document CHEMBL5620377, “Research progress of VEGFR small molecule inhibitors in ocular neovascular diseases” (Eur J Med Chem, 2023)
